In US12077503B2, “Substituted cyclic amides and their use as herbicides” (FMC CORPORATION, priority 2015, dated 2024):

How the values were obtained:
Format in all cases: in vivo
Kochia (Kochia scoparia) = experiment: Test A preemergence; details: Bassia scoparia, pre-emergence, 240 h, preemergence, 0 to 100 scale where 0 is no effect and 100 is complete control, read-out: Kochia plant response rating
How it was run: (§1)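 Greenhouse, ~10 d after spray; visual injury vs untreated controls, 0 = no effect, 100 = complete control. Preemergence: directed soil spray over planted seeds. Postemergence: plants 2–10 cm, 1–2 leaf stage. Loam/sand blend. Compound in non-phytotoxic solvent with surfactant.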

[1] = tested on: barnyardgrass (Echinochloa crus-galli); experiment: Test A preemergence; details: Echinochloa crus-galli, pre-emergence, 240 h, preemergence, 0 to 100 scale where 0 is no effect and 100 is complete control, read-out: Barnyardgrass plant response rating
How it was run: as §1

[2] = tested on: giant foxtail (Setaria faberii); experiment: Test A preemergence; details: Setaria faberi, pre-emergence, 240 h, preemergence, 0 to 100 scale where 0 is no effect and 100 is complete control, read-out: Foxtail, Giant plant response rating
How it was run: as §1

[3] = tested on: pigweed (Amaranthus retroflexus); experiment: Test A preemergence; details: Amaranthus retroflexus, pre-emergence, 240 h, preemergence, 0 to 100 scale where 0 is no effect and 100 is complete control, read-out: Pigweed plant response rating
[4] = tested on: ragweed (common ragweed, Ambrosia elatior); experiment: Test A preemergence; details: Ambrosia artemisiifolia, pre-emergence, 240 h, preemergence, 0 to 100 scale where 0 is no effect and 100 is complete control, read-out: Ragweed plant response rating
How it was run: as §1

[5] = tested on: ryegrass, Italian (Italian ryegrass, Lolium multiflorum); experiment: Test A preemergence; details: Lolium multiflorum, pre-emergence, 240 h, preemergence, 0 to 100 scale where 0 is no effect and 100 is complete control, read-out: Ryegrass, Italian plant response rating
How it was run: as §1

[6] = tested on: Galium (catchweed bedstraw, Galium aparine); experiment: Test A postemergence; details: Galium, post-emergence, 240 h, postemergence
How it was run: as §1

[7] = tested on: barnyardgrass (Echinochloa crus-galli); experiment: Test A postemergence; details: Echinochloa crus-galli, post-emergence, 240 h, postemergence
How it was run: as §1

corn (Zea mays) = experiment: Test A postemergence; details: Zea mays, post-emergence, 240 h, postemergence
How it was run: as §1

[8] = tested on: giant foxtail (Setaria faberii); experiment: Test A postemergence; details: Setaria faberi, post-emergence, 240 h, postemergence
How it was run: as §1

[9] = tested on: pigweed (Amaranthus retroflexus); experiment: Test A postemergence; details: Amaranthus retroflexus, post-emergence, 240 h, postemergence
How it was run: as §1

[10] = tested on: ragweed (common ragweed, Ambrosia elatior); experiment: Test A postemergence; details: Ambrosia artemisiifolia, post-emergence, 240 h, postemergence
How it was run: as §1

[11] = tested on: ryegrass, Italian (Italian ryegrass, Lolium multiflorum); experiment: Test A postemergence; details: Lolium multiflorum, post-emergence, 240 h, postemergence
How it was run: as §1

[12] = tested on: wheat (Triticum aestivum); experiment: Test A postemergence; details: Triticum aestivum, post-emergence, 240 h, postemergence
How it was run: as §1

[13] = 125 g ai/ha, visual injury rating, approximately 10 d

CN1CC[C@H](c2ccc(C(F)(F)F)cc2)[C@@H](C(=O)Nc2cccc(F)c2F)C1=O [Compound 1225]
60%: pest or weed control at 125 g/ha (Kochia (Kochia scoparia); [13]) | pest or weed control at 500 g/ha ([4]; 500 g ai/ha)
30%: pest or weed control at 125 g/ha [3, 13] | plant injury at 125 g/ha (corn (Zea mays); 125 g ai/ha, visual injury vs untreated controls after approx. 10 d, 0 = no effect, 100 = complete control, read-out: Corn plant response rating (0 to 100 scale)) | pest or weed control at 125 g/ha ([9]; 125 g ai/ha, visual injury vs untreated controls after approx. 10 d, 0 = no effect, 100 = complete control, read-out: Pigweed plant response rating (0 to 100 scale)) | pest or weed control at 125 g/ha ([11]; 125 g ai/ha, visual injury vs untreated controls after approx. 10 d, 0 = no effect, 100 = complete control, read-out: Ryegrass, Italian plant response rating (0 to 100 scale)) | pest or weed control at 500 g/ha ([11]; 500 g ai/ha, 0 to 100 scale, 0 is no effect, 100 is complete control, read-out: Ryegrass, Italian plant response rating) | plant injury at 125 g/ha ([12]; 125 g ai/ha, visual injury vs untreated controls after approx. 10 d, 0 = no effect, 100 = complete control, read-out: Wheat plant response rating (0 to 100 scale))
50%: pest or weed control at 500 g/ha ([3]; 500 g ai/ha) | pest or weed control at 125 g/ha [4, 13] | pest or weed control at 125 g/ha ([6]; 125 g ai/ha, visual injury vs untreated controls after approx. 10 d, 0 = no effect, 100 = complete control, read-out: Galium plant response rating (0 to 100 scale)) | pest or weed control at 500 g/ha ([10]; 500 g ai/ha, 0 to 100 scale, 0 is no effect, 100 is complete control, read-out: Ragweed plant response rating)
70%: pest or weed control at 500 g/ha (Kochia (Kochia scoparia); 500 g ai/ha) | pest or weed control at 500 g/ha ([6]; 500 g ai/ha, 0 to 100 scale, 0 is no effect, 100 is complete control, read-out: Galium plant response rating) | plant injury at 500 g/ha ([12]; 500 g ai/ha, 0 to 100 scale, 0 is no effect, 100 is complete control, read-out: Wheat plant response rating)
40%: pest or weed control at 500 g/ha ([5]; 500 g ai/ha) | pest or weed control at 500 g/ha ([9]; 500 g ai/ha, 0 to 100 scale, 0 is no effect, 100 is complete control, read-out: Pigweed plant response rating) | pest or weed control at 125 g/ha ([10]; 125 g ai/ha, visual injury vs untreated controls after approx. 10 d, 0 = no effect, 100 = complete control, read-out: Ragweed plant response rating (0 to 100 scale))
90%: pest or weed control at 125 g/ha [1, 13] | pest or weed control at 500 g/ha ([1]; 500 g ai/ha) | pest or weed control at 125 g/ha [2, 13] | pest or weed control at 500 g/ha ([2]; 500 g ai/ha) | pest or weed control at 125 g/ha ([7]; 125 g ai/ha, visual injury vs untreated controls after approx. 10 d, 0 = no effect, 100 = complete control, read-out: Barnyardgrass plant response rating (0 to 100 scale)) | pest or weed control at 500 g/ha ([7]; 500 g ai/ha, 0 to 100 scale, 0 is no effect, 100 is complete control, read-out: Barnyardgrass plant response rating) | plant injury at 500 g/ha (corn (Zea mays); 500 g ai/ha, 0 to 100 scale, 0 is no effect, 100 is complete control, read-out: Corn plant response rating) | pest or weed control at 125 g/ha ([8]; 125 g ai/ha, visual injury vs untreated controls after approx. 10 d, 0 = no effect, 100 = complete control, read-out: Foxtail, Giant plant response rating (0 to 100 scale)) | pest or weed control at 500 g/ha ([8]; 500 g ai/ha, 0 to 100 scale, 0 is no effect, 100 is complete control, read-out: Foxtail, Giant plant response rating)
20%: pest or weed control at 125 g/ha [5, 13]
